Assay results as given in patent US20230346961A1, “GLP-1 AND GIP RECEPTOR CO-AGONISTS” (Novo Nordisk A/S, priority 2020, published 2023).
Blank lines part the entries; values can stand above or below the molecule they belong to. Starred links: 1 amine or outer side, 2 acyl side, 3 side chain; linkers in the order of their positions; H or OH if unused. Non-standard residues stand in square brackets, D forms with d. Residues, ends and D or L forms follow the SMILES beside them. Groups on a side chain read outwards from the residue. *: point of attachment. C18 diacid = O=C(O)CCCCCCCCCCCCCCCCC(=O)*; γGlu = O=C(O)[C@H](CCC(=O)[*:2])N[*:1]; εLys = N[C@@H](CCCCN[*:1])C(=O)[*:2]; Aib = CC(C)(N)C(=O)O

What was measured:
[1] = test system: diet-induced obese (DIO) mice; assay: Pharmacodynamic study in DIO mice: body weight and food intake; assay type: in vivo, C57BL/6J male mice; conditions: for Absolute BW Day 14 / Change in BW Day 14 / Cumulative food intake Day 14: 14 days; for Cumulative food intake Day 14: n = 2-3
Procedure: The purpose of this example is to assess the in vivo effect of select compounds on pharmacodynamic parameters in diet-induced obese (DIO) mice. The animals were treated once daily via subcutaneous injection with a liquid formulation of the test compound to assess effects on body weight, foot intake, and glucose tolerance. For comparison, the known GLP-1R/GIPR co-agonist tirzepatide and a surrogate of the GLP-1R agonist semaglutide were used as references. The semaglutide surrogate has the same pharmacological properties of semaglutide but a slightly modified structure in which the γGlu element of the substituent has been changed from the L-isomer to the D-isomer.
C57BL/6J male mice were purchased from Jackson Laboratories at approximately 8 weeks of age. Mice were group housed and fed a high-fat, high-sugar diet from Research Diets (D12331). Mice were maintained on this diet for 12 weeks prior to initializing the pharmacology studies. Mice exceeding a measured body weight of 50 grams were considered diet-induced obese (DIO) and included in pharmacology studies. Mice were exposed to a controlled 12 h:12 h light:dark cycle at ambient room temperature (22° C.) with ab libitum access to food and water. Studies were approved by and performed according to the guidelines of the Institutional Animal Care and Use Committee of the University of Cincinnati.
Animals were dosed once daily, subcutaneously with either vehicle or test compound. All injections occurred during the middle of the light phase at a fixed volume of 2-5 microliters per gram body weight.
All compounds in the study were formulated in the following buffer: 50 mM phosphate; 70 mM sodium chloride; 0.05% Tween-80, pH 7.4. Dosing solutions were formulated in glass vials and stored at 2-8° C. Dosing solutions were brought to room temperature before dosing and returned to 2-8° C. after dosing.
DIO mice were distributed into groups (n=8 per group) such that statistical variations in the mean and standard deviations of fat mass and body weight were minimized between groups. The animals were grouped to receive treatment as follows: Vehicle, tirzepatide, semaglutide surrogate or a GLP-1/GIP receptor co-agonists as described herein, where vehicle is 50 mM phosphate, 70 mM sodium chloride; 0.05% Tween-80, pH 7.4. The test compounds were dissolved in the vehicle, to stock concentrations of 100 μM, then diluted 50-200 fold in the vehicle to achieve the desired dosing solution concentrations. Animals were dosed subcutaneously once daily in the morning for each day of treatment with dosing solution at a volume of 2-5 μL per gram of body weight as necessary to achieve the desired dose (eg 0.3 nmol/kg, 1.0 nmol/kg, or 3.0 nmol/kg).
Body weight (BW) and food intake were measured immediately prior to dosing each day. The percent change in body was calculated individually for each mouse based on initial body weight prior to the first injection.

[2] = test system: diet-induced obese (DIO) mice; assay: Pharmacodynamic study in DIO mice: IPGTT (intraperitoneal glucose tolerance test); assay type: in vivo, C57BL/6J male mice; conditions: glucose 2 g/kg i.p., mean ± SEM; for iAUC, IPGTT Day 31: 30 days; for iAUC, IPGTT Day 15: 14 days
human glucagon receptor = human glucagon receptor (Homo sapiens, UniProt P47871); assay: cell-based
mouse GLP-1 receptor = molecular target: T1, mouse GLP-1 receptor (Mus musculus, UniProt O35659)
T1 sequence (O35659 22-463): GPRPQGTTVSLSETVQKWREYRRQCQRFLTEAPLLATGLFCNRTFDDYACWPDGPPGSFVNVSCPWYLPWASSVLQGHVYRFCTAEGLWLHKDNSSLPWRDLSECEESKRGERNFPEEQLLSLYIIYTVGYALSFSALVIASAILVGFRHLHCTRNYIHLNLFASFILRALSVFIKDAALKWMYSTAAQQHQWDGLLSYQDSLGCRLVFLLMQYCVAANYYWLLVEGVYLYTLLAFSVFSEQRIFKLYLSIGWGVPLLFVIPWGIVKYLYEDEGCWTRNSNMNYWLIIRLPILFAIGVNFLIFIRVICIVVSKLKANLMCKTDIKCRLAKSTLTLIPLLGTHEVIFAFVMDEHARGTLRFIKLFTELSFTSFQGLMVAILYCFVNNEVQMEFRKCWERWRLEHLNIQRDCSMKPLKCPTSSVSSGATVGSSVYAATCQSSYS

[3] = molecular target: T2, mouse glucagon-like peptide 1 receptor (mouse, UniProt O35659 22-463); assay: cell-based or functional assay
T2 sequence (looked up): T1 sequence (O35659 22-463)

[4] = DIO mice, 0.3 nmol/kg s.c. once daily, 30 days, mean ± SEM
[5] = DIO mice, 1.0 nmol/kg s.c. once daily, 30 days, mean ± SEM
[6] = DIO mice, 3.0 nmol/kg s.c. once daily, 10 days, mean ± SEM, n = 8
[7] = DIO mice, 3.0 nmol/kg s.c. once daily, 30 days, mean ± SEM
[8] = DIO mice, 0.3 nmol/kg s.c. once daily, mean ± SEM
[9] = DIO mice, 1.0 nmol/kg s.c. once daily, mean ± SEM
[10] = DIO mice, 3.0 nmol/kg s.c. once daily, mean ± SEM

Sequence of human glucagon receptor (P47871 26-477): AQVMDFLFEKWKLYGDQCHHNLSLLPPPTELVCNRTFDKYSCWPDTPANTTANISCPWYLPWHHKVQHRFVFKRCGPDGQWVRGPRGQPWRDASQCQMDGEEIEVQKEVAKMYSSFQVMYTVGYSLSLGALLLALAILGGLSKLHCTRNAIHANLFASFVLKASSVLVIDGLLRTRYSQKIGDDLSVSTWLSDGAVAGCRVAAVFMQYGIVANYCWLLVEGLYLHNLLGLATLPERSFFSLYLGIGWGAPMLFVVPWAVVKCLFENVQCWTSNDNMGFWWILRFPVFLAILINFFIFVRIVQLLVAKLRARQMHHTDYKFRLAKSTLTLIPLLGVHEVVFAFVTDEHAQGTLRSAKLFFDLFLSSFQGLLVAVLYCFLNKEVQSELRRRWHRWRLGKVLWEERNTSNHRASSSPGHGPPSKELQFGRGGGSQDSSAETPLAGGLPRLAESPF

Molecule: CC[C@H](C)[C@H](NC(=O)[C@H](CO)NC(=O)[C@H](Cc1ccc(O)cc1)NC(=O)[C@H](CC(=O)O)NC(=O)[C@H](CO)NC(=O)[C@@H](NC(=O)[C@H](Cc1ccccc1)NC(=O)[C@@H](NC(=O)CNC(=O)[C@H](CCC(=O)O)NC(=O)C(C)(C)NC(=O)[C@@H](N)Cc1ccc(O)cc1)[C@@H](C)O)[C@@H](C)O)C(=O)N[C@@H](Cc1ccc(O)cc1)C(=O)N[C@@H](CC(C)C)C(=O)N[C@@H](CC(=O)O)C(=O)N[C@@H](CCCCN)C(=O)N[C@@H](CCC(N)=O)C(=O)N[C@@H](C)C(=O)N[C@@H](C)C(=O)NC(C)(C)C(=O)N[C@@H](CCCCNC(=O)[C@@H](N)CCCCNC(=O)[C@@H](N)CCCCNC(=O)CC[C@H](NC(=O)CCCCCCCCCCCCCCCCC(=O)O)C(=O)O)C(=O)N[C@@H](Cc1ccccc1)C(=O)N[C@H](C(=O)N[C@@H](CC(N)=O)C(=O)N[C@@H](Cc1c[nH]c2ccccc12)C(=O)N[C@@H](CC(C)C)C(=O)N[C@@H](CC(C)C)C(=O)N[C@@H](C)C(=O)NCC(=O)NCC(=O)N1CCC[C@H]1C(=O)N[C@@H](CO)C(=O)N[C@@H](CO)C(=O)NCC(=O)N[C@@H](C)C(=O)N1CCC[C@H]1C(=O)N1CCC[C@H]1C(=O)N1CCC[C@H]1C(=O)N[C@@H](CO)C(N)=O)C(C)C [Compound 9] (H-Y[Aib]EGTFTSDYSIYLDKQAA[Aib]K([εLys-εLys-γGlu-C18 diacid])FVNWLLAGGPSSGAPPPS-NH2; N-terminus assumed)
Absolute BW Day 0 ([1]; DIO mice, 0.3 nmol/kg group, baseline Day 0 (30-day study), mean ± SEM): 66.5 ± 2.6 grams | Absolute BW Day 31 [1, 4]: 66.9 ± 3.2 grams | Change in BW Day 31 [1, 4]: 3.4 ± 1.7% | Cumulative food intake Day 31 ([1]; DIO mice, 0.3 nmol/kg s.c. once daily, 30 days, mean ± SEM, n = 2): 87.4 ± 5.9 grams | Performance compared with semaglutide surrogate in all parameters (in words) ([1]; DIO mice, 1.0 nmol/kg and 3.0 nmol/kg doses, 30 days): superior performance to semaglutide surrogate | Absolute BW Day 0 ([1]; DIO mice, 1.0 nmol/kg group, baseline Day 0 (30-day study), mean ± SEM): 70.0 ± 1.9 grams | Absolute BW Day 31 [1, 5]: 50.9 ± 2.2 grams | Change in BW Day 31 [1, 5]: −23.9 ± 2.6% | Cumulative food intake Day 31 ([1]; DIO mice, 1.0 nmol/kg s.c. once daily, 30 days, mean ± SEM, n = 2): 60.4 ± 4.5 grams | Absolute BW Day 0 ([1]; DIO mice, 3.0 nmol/kg group, baseline Day 0 (10-day study), mean ± SEM, n = 8): 63.8 ± 0.8 grams | Absolute BW Day 0 ([1]; DIO mice, 3.0 nmol/kg group, baseline Day 0 (30-day study), mean ± SEM): 65.8 ± 1.4 grams | Cumulative food intake Day 10 ([1]; DIO mice, 3.0 nmol/kg s.c. once daily, 10 days, mean ± SEM, n = 2): 8.3 ± 1.0 grams | Absolute BW Day 10 [1, 6]: 51.3 ± 0.9 grams | Change in BW Day 10 [1, 6]: −19.6 ± 0.7% | Absolute BW Day 31 [1, 7]: 40.0 ± 2.4 grams | Change in BW Day 31 [1, 7]: −39.1 ± 3.8% | Cumulative food intake Day 31 ([1]; DIO mice, 3.0 nmol/kg s.c. once daily, 30 days, mean ± SEM, n = 2): 46.4 ± 6.6 grams | Response on food intake, body weight and glucose tolerance (in words) ([1]; DIO mice, 0.3, 1.0 or 3.0 nmol/kg s.c. daily for 30 days): dose-dependent response | iAUC, IPGTT Day 31 ([2]; 0.3 nmol/kg s.c. once daily): 14979 ± 3423 mg·min/dL | iAUC, IPGTT Day 31 ([2]; 1.0 nmol/kg s.c. once daily): 7714 ± 1722 mg·min/dL | iAUC, IPGTT Day 31 ([2]; 3.0 nmol/kg s.c. once daily): 4073 ± 1764 mg·min/dL | EC50 (human glucagon receptor): > 10000 pM | EC50 (mouse GLP-1 receptor): 2.5 pM

mGLP-1R, CRE Luc EC50 [3]: 3.5 pM
Molecule: Human GLP-1(7-37) (from UniProt P01275 98-128) (ligand)

Molecule: Tirzepatide: known GLP-1R/GIPR co-agonist used as reference [reference compound]
Absolute BW Day 0 ([1]; DIO mice, 0.3 nmol/kg group, baseline Day 0 (14-day study), mean ± SEM): 64.1 ± 1.7 grams | Absolute BW Day 14 [1, 8]: 58.2 ± 1.9 grams | Change in BW Day 14 [1, 8]: −9.4 ± 1.2% | Cumulative food intake Day 14 [1, 8]: 32.3 ± 1.9 grams | Absolute BW Day 0 ([1]; DIO mice, 1.0 nmol/kg group, baseline Day 0 (14-day study), mean ± SEM): 63.5 ± 1.6 grams | Absolute BW Day 14 [1, 9]: 49.8 ± 1.8 grams | Change in BW Day 14 [1, 9]: −21.0 ± 1.2% | Cumulative food intake Day 14 [1, 9]: 18.4 ± 0.7 grams | Absolute BW Day 0 ([1]; DIO mice, 3.0 nmol/kg group, baseline Day 0 (14-day study), mean ± SEM): 63.6 ± 2.5 grams | Absolute BW Day 14 [1, 10]: 45.1 ± 2.1 grams | Change in BW Day 14 [1, 10]: −29.0 ± 2.4% | Cumulative food intake Day 14 [1, 10]: 16.4 ± 2.3 grams | iAUC, IPGTT Day 15 ([2]; 0.3 nmol/kg s.c. once daily): 13005 ± 2962 mg·min/dL | iAUC, IPGTT Day 15 ([2]; 1.0 nmol/kg s.c. once daily): 10365 ± 3585 mg·min/dL | iAUC, IPGTT Day 15 ([2]; 3.0 nmol/kg s.c. once daily): 8974 ± 1804 mg·min/dL
